These results are taken from ChEMBL document CHEMBL5252562, “Synthesis, evaluation of anti-breast cancer activity in vitro of ICS II derivatives and summary of the structure-activity relationship” (Bioorg Med Chem, 2023).

The test system of data set [1] is MCF7. Description: Antitumor activity against human MCF7 cells assessed as cell viability incubated for 48 hrs by CCK8 assay. The format is functional, cell-based. As to conditions: MCF7, 48 h.
Data set [2] is described as follows: Cytotoxicity against African green monkey Vero cells. The format is toxicity, cell-based. Conditions: African green monkey (Chlorocebus sabaeus).
Data set [3] can be described thus: Selectivity index, ratio of IC50 for cytotoxicity against African green monkey Vero cells to IC50 for antitumor activity against human MCF7 cells. In kind it is toxicity, cell-based. Conditions: Vero cells and MCF7 cells, read-out: Ratio IC50.
The subject of data set [4] is MCF7. The data set is described as follows: Antitumor activity against human MCF7 cells assessed as cell viability at 20 uM incubated for 48 hrs by CCK8 assay. The format is functional. Conditions: read-out: Activity. A general note: Tetrazolium dyes change colour on reduction, which living cells bring about.
Data set [5] deals with MCF7. The data set is described as follows: Potency index, ratio of Icariside-II IC50 to test compound IC50 for antitumor activity against human MCF7 cells. In kind it is functional.

pIC50: −log10 of the molar value. Some results are limits rather than exact numbers.

By pIC50 is commonly meant the IC50 on a negative log10 scale, so that one unit is a factor of ten. In the case of `COc1ccc(-c2oc3c(CC=C(C)C)c(OCC=C(C)C)cc(O)c3c(=O)c2O[C@@H]2O[C@@H](C)[C@H](O)[C@@H](O)[C@H]2O)cc1`, the pIC50 with MCF7 [1] was 5.66; in data set [2] it was 5.17. The selectivity ratio in data set [3] is 2.85. In the data set on MCF7 [4], the viability at 20 µM is less than 50%.
With `COc1ccc(-c2oc3c(CC=C(C)C)c(OCCO)cc(O)c3c(=O)c2O[C@@H]2O[C@@H](C)[C@H](O)[C@@H](O)[C@H]2O)cc1`, the pIC50 in the data set with MCF7 [1] is 4.99. The viability at 20 µM with MCF7 [4] was less than 50%.
For `C#CCOc1cc(OCC#C)c2c(=O)c(O[C@@H]3O[C@@H](C)[C@H](O)[C@@H](O)[C@H]3O)c(-c3ccc(OC)cc3)oc2c1CC=C(C)C` the same measures were 5.20 and less than 50%.
As to `COc1ccc(-c2oc3c(CC=C(C)C)c(O)c(CN4CCCC4)c(O)c3c(=O)c2O[C@@H]2O[C@@H](C)[C@H](O)[C@@H](O)[C@H]2O)cc1`, the pIC50 in the data set on MCF7 [1] was less than 4.70.
In the case of `COc1ccc(-c2oc3c(CC=C(C)C)c(OC(C)=O)cc(OC(C)=O)c3c(=O)c2O[C@@H]2O[C@@H](C)[C@H](OC(C)=O)[C@@H](OC(C)=O)[C@H]2OC(C)=O)cc1`, the pIC50 in the data set on MCF7 [1] was 6.15; in data set [2] it was 5.50. Also, the selectivity ratio in data set [3] is 4.47. Moreover, the viability at 20 µM in the data set with MCF7 [4] is less than 50%. Further, the “Ratio IC50” value with MCF7 [5] worked out at 5.
On to `C=CCOc1cc(O)c2c(=O)c(O[C@@H]3O[C@@H](C)[C@H](O)[C@@H](O)[C@H]3O)c(-c3ccc(OC)cc3)oc2c1CC=C(C)C`, for which the pIC50 was 5.54 in the data set on MCF7 [1] and 5.23 in data set [2]. The selectivity ratio in data set [3] is 2.03. For the same molecule, in the data set with MCF7 [4], the viability at 20 µM is less than 50%.
With `COc1ccc(-c2oc3c(CC=C(C)C)c(O)c(CN(C(C)C)C(C)C)c(O)c3c(=O)c2O[C@@H]2O[C@@H](C)[C@H](O)[C@@H](O)[C@H]2O)cc1`, the pIC50 in the data set with MCF7 [1] is less than 4.70.
On the same count and under the same terms, as for `COc1ccc(-c2oc3c(CC=C(C)C)c(O)c(CN4CCCCC4)c(O)c3c(=O)c2O[C@@H]2O[C@@H](C)[C@H](O)[C@@H](O)[C@H]2O)cc1`, the figure is less than 4.70.
With `COc1ccc(-c2oc3c(CC=C(C)C)c(OCCCN4CCNCC4)cc(O)c3c(=O)c2O[C@@H]2O[C@@H](C)[C@H](O)[C@@H](O)[C@H]2O)cc1`, the pIC50 in the data set on MCF7 [1] was 5.39; in data set [2], less than 4.70. The selectivity ratio in data set [3] is more than 5. Further, the viability at 20 µM in the data set on MCF7 [4] is less than 50%.
As to `COc1ccc(-c2oc3c(CC=C(C)C)c(OCCCBr)cc(O)c3c(=O)c2O[C@@H]2O[C@@H](C)[C@H](O)[C@@H](O)[C@H]2O)cc1`, in the data set with MCF7 [1], the pIC50 was 4.87. Also, the viability at 20 µM in the data set on MCF7 [4] is less than 50%.
For the molecule `C=C(C)COc1c(CN2CCC(C)CC2)c(O)c2c(=O)c(O[C@@H]3O[C@@H](C)[C@H](O)[C@@H](O)[C@H]3O)c(-c3ccc(OC)cc3)oc2c1CC=C(C)C`, the pIC50 with MCF7 [1] was less than 4.70.
With `COc1ccc(-c2oc3c(CC=C(C)C)c(OCC4OCCO4)cc(O)c3c(=O)c2O[C@@H]2O[C@@H](C)[C@H](O)[C@@H](O)[C@H]2O)cc1`, in the data set with MCF7 [1], the pIC50 was 5.20. Further, in the data set with MCF7 [4], the viability at 20 µM is less than 50%.
As for `CCN(CC)Cc1c(O)c(CC=C(C)C)c2oc(-c3ccc(OC)cc3)c(O[C@@H]3O[C@@H](C)[C@H](O)[C@@H](O)[C@H]3O)c(=O)c2c1O`, the pIC50 with MCF7 [1] was less than 4.70.
For the molecule `COc1ccc(-c2oc3c(CC=C(C)C)c(OCCCN4CCC(C)CC4)cc(O)c3c(=O)c2O[C@@H]2O[C@@H](C)[C@H](O)[C@@H](O)[C@H]2O)cc1`, the pIC50 was 5.50 in the data set on MCF7 [1] and 4.99 in data set [2]. In addition, in data set [3], the selectivity ratio is 3.24. In addition, the viability at 20 µM with MCF7 [4] was less than 50%.
Regarding `CCOc1cc(O)c2c(=O)c(O[C@@H]3O[C@@H](C)[C@H](O)[C@@H](O)[C@H]3O)c(-c3ccc(OC)cc3)oc2c1CC=C(C)C`, in the data set on MCF7 [1], the pIC50 is 5.08. Also, the viability at 20 µM with MCF7 [4] is less than 50%.
Regarding `COc1ccc(-c2oc3c(CC=C(C)C)c(O)c(CN4CCN(C)CC4)c(O)c3c(=O)c2O[C@@H]2O[C@@H](C)[C@H](O)[C@@H](O)[C@H]2O)cc1`, in the data set on MCF7 [1], the pIC50 was less than 4.70.
`COc1ccc(-c2oc3c(CC=C(C)C)c(OCCCCCCCCCO)cc(O)c3c(=O)c2O[C@@H]2O[C@@H](C)[C@H](O)[C@@H](O)[C@H]2O)cc1`: the pIC50 with MCF7 [1] is 4.99. In addition, in the data set with MCF7 [4], the viability at 20 µM is less than 50%.
For `C#CCOc1cc(O)c2c(=O)c(O[C@@H]3O[C@@H](C)[C@H](O)[C@@H](O)[C@H]3O)c(-c3ccc(OC)cc3)oc2c1CC=C(C)C`, the figures for the pIC50 (in the data set with MCF7 [1]; in data set [2]) were 5.55 and 5.19, respectively. In addition, the selectivity ratio in data set [3] is 2.3. The viability at 20 µM in the data set with MCF7 [4] was less than 50%.
Consider `COc1ccc(-c2oc3c(CC=C(C)C)c(OCc4ccc([N+](=O)[O-])cc4)cc(O)c3c(=O)c2O[C@@H]2O[C@@H](C)[C@H](O)[C@@H](O)[C@H]2O)cc1`, for which the pIC50 in the data set on MCF7 [1] is less than 4.70.
Turning to `COc1ccc(-c2oc3c(CC=C(C)C)c(OCCCN4CCCCC4)cc(O)c3c(=O)c2O[C@@H]2O[C@@H](C)[C@H](O)[C@@H](O)[C@H]2O)cc1`, the pIC50 was 5.42 in the data set on MCF7 [1] and 4.81 in data set [2]. Moreover, the selectivity ratio in data set [3] came out at 4.08. Also, the viability at 20 µM with MCF7 [4] was less than 50%.
For `C=C(C)COc1cc(O)c2c(=O)c(O[C@@H]3O[C@@H](C)[C@H](O)[C@@H](O)[C@H]3O)c(-c3ccc(OC)cc3)oc2c1CC=C(C)C` the same measures were 5.40, 5.09, 2.06 and less than 50%.
As for `COc1ccc(-c2oc3c(CC=C(C)C)c(O)c(CN4CCNCC4)c(O)c3c(=O)c2O[C@@H]2O[C@@H](C)[C@H](O)[C@@H](O)[C@H]2O)cc1`, the pIC50 in the data set on MCF7 [1] was less than 4.70.
Take `CCN(CC)CCCOc1cc(O)c2c(=O)c(O[C@@H]3O[C@@H](C)[C@H](O)[C@@H](O)[C@H]3O)c(-c3ccc(OC)cc3)oc2c1CC=C(C)C`: the pIC50 was 5.49 in the data set on MCF7 [1] and 5.21 in data set [2]. Moreover, the selectivity ratio in data set [3] came to 1.89. Further, the viability at 20 µM in the data set with MCF7 [4] was less than 50%.
For `COc1ccc(-c2oc3c(CC=C(C)C)c(OCCCN4CCCC4)cc(O)c3c(=O)c2O[C@@H]2O[C@@H](C)[C@H](O)[C@@H](O)[C@H]2O)cc1` the same measures were 5.51, 5.21, 1.99 and less than 50%.
Turning to `COc1ccc(-c2oc3c(CC=C(C)C)c(O)c(CN4CCC(C)CC4)c(O)c3c(=O)c2O[C@@H]2O[C@@H](C)[C@H](O)[C@@H](O)[C@H]2O)cc1`, the pIC50 in the data set with MCF7 [1] is 4.76.
Still for that read-out and setting: as for `COc1ccc(-c2oc3c(CC=C(C)C)c(OC(=O)N(C)C)cc(O)c3c(=O)c2O[C@@H]2O[C@@H](C)[C@H](O)[C@@H](O)[C@H]2O)cc1`, the figure is less than 4.70.
As to `COc1ccc(-c2oc3c(CC=C(C)C)c(OC(C)=O)cc(O)c3c(=O)c2O[C@@H]2O[C@@H](C)[C@H](OC(C)=O)[C@@H](OC(C)=O)[C@H]2OC(C)=O)cc1`, the pIC50 in the data set with MCF7 [1] is 5.81; in data set [2] it was 5.41. In addition, in data set [3], the selectivity ratio came out at 2.51. For the same molecule, the viability at 20 µM in the data set with MCF7 [4] was less than 50%.
With `COc1ccc(-c2oc3c(CC=C(C)C)c(O)cc(O)c3c(=O)c2O[C@@H]2O[C@@H](C)[C@H](O)[C@@H](O)[C@H]2O)cc1`, the values for the pIC50 (in the data set on MCF7 [1]; in data set [2]) were 5.12 and 5.03, respectively. Besides, the selectivity ratio in data set [3] stood at 1.24.
Consider `CC(=O)O[C@H]1C(=O)[C@@]2(C)[C@H]([C@H](OC(=O)c3ccccc3)[C@]3(O)C[C@H](OC(=O)[C@H](O)[C@@H](NC(=O)c4ccccc4)c4ccccc4)C(C)=C1C3(C)C)[C@]1(OC(C)=O)CO[C@@H]1C[C@@H]2O` [PACLITAXEL], for which, in the data set on MCF7 [1], the pIC50 was 6.32.
